# Data: ChEMBL document CHEMBL4425107, “Monothiocarbamates Strongly Inhibit Carbonic Anhydrases in Vitro and Possess Intraocular Pressure Lowering Activity in an Animal Model of Glaucoma” (J Med Chem, 2016)
# Calls of active or inactive are those of the source. No cut-off for these calls is given here.
# Legend:
# Carbonic anhydrase 9 = Carbonic anhydrase 9 (Homo sapiens, UniProt Q16790); assay: Inhibition of human carbonic anhydrase 9 catalytic domain preincubated for 15 mins by CO2 hydration stopped-flow assay
# Carbonic anhydrase 2 = Carbonic anhydrase 2 (Homo sapiens, UniProt P00918); assay: Inhibition of human carbonic anhydrase 2 preincubated for 15 mins by CO2 hydration stopped-flow assay
# Carbonic anhydrase 1 = Carbonic anhydrase 1 (Homo sapiens, UniProt P00915); assay: Inhibition of human carbonic anhydrase 1 preincubated for 15 mins by CO2 hydration stopped-flow assay
# Oryctolagus cuniculus = assay: Ocular hypotensive activity in sterile hypertonic saline injected hypertensive New Zealand white rabbit assessed as reduction in intraocular pressure at 1 % administered as eye drops up to 240 mins post injection; assay type: functional, organism-based
# Carbonic anhydrase 1, sequence (P00915 whole entry): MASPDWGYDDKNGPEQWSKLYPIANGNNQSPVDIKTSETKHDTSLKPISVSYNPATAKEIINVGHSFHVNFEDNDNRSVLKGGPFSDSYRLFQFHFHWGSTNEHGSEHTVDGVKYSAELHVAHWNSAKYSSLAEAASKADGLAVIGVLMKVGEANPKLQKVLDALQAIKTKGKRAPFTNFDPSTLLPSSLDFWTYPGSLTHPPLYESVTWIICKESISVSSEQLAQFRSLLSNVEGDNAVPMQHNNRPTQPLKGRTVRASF
Structure (SMILES),Ki (Carbonic anhydrase 9),Ki (Carbonic anhydrase 2),Ki (Carbonic anhydrase 1),Activity (Oryctolagus cuniculus)
O=C(S)N1CCOCC1,13.5 nM,> 2000 nM,–,–
O=C(S)NCCc1ccccc1,21.5 nM,–,> 2000 nM,Active
CCOC(=O)CN(C)C(=O)S,22.1 nM,–,–,–
O=C(CN1CCN(C(=O)S)CC1)NC1CCCCC1,14 nM,–,–,Active
COc1ccc(CCNC(=O)S)cc1OC,15.2 nM,–,–,–
O=C(S)N1CCN(c2ccc(C(F)(F)F)cc2)CC1,11.8 nM,–,> 2000 nM,–
CCCN(CCC)C(=O)S,12.5 nM,–,> 2000 nM,–

# Second part, led by results:
Ki (Carbonic anhydrase 9),Ki (Carbonic anhydrase 2),Ki (Carbonic anhydrase 1),Structure (SMILES),Activity (Oryctolagus cuniculus)
4.9 nM,> 2000 nM,–,O=C(S)N1CCN(c2cccc(Cl)c2)CC1,–
9.2 nM,–,–,CC(C)CN(CC(C)C)C(=O)S,–
11.7 nM,> 2000 nM,> 2000 nM,CN(Cc1ccccc1)C(=O)S,–
6.8 nM,> 2000 nM,–,CCCCN(CCCC)C(=O)S,–
6.2 nM,> 2000 nM,–,CCCCN(CC)C(=O)S,–
6.5 nM,–,–,O=C(S)N1CCN(c2ccc(F)cc2)CC1,–
7.7 nM,–,> 2000 nM,CN1CCN(NC(=O)S)CC1,–
